Here are results for two molecules from article PMC4310329, “The length of a lantibiotic hinge region has profound influence on antimicrobial activity and host specificity” (Frontiers in Microbiology, 2015).

SMILES strings stand for the structures. Some results are limits rather than exact numbers.

One assay concerns B. sporothermodurans IC4. In words: Agar well diffusion assay. The note with it: 30 °C; estimated from halo diameter by nisin standard curve, relative to wt. The class given is cell-based, Bacillus sporothermodurans. The method, then:
(§1) L. lactis strains were cultured in M17 broth supplemented with 0.5% (w/v) glucose (GM17) or GM17 agar for genetic manipulation or in minimal expression medium (MEM) for protein expression at 30°C (Rink et al., [2005]). E. faecalis, S. aureus, S. pneumonia, and L. monocytogenes were grown in GM17 at 37°C or GM17 agar at different temperatures for agar diffusion assay. M. luteus was grown in Luria-Bertani broth shaken (200 rpm) at 30°C or LB agar at 20°C for agar diffusion assay. Bacillus strains were cultured in Brain Heart Infusion (BHI) shaken (200 rpm) or BHI agar at different temperatures for agar diffusion assay.
For the agar well diffusion assay, the same cultures as in the MIC value test were used and diluted 200 times with solid media. Identical sizes of wells (7.5 mm diameter) were made and 2 μg of hinge region analogs dissolved in 20 μl 0.05% acetic acid were added. The plates were incubated at different temperatures for at least 1 day until apparent halos appeared. For activity test at low temperature, the indicators were diluted in the same way but poured into smaller plates (52 mm diameter). The plates were incubated at 4°C overnight before the peptides were added. […] The diameters of the halos were measured.
The antimicrobial activity of the hinge region analogs in solid media were tested by an agar well diffusion assay. The diameters of the halos were measured and the residual activity of the analogs were estimated according to the formula of the relationship between the concentration of nisin and the sizes of halos. […]
(§2) To evaluate the activity of nisin on the agar plate, an agar well diffusion assay with gradient of nisin against Lactococcus lactis ( with two plasmids) was performed ( Supplementary Figur e 1 A). The diameter of the halos were measured (Supplementary Figure 1B). […]
the concentration of nisin is in liner relationship with diameter of the halos ( Supplementary Fi g u re 1C). According to the formula (1) , the relative activity of the peptides compared to nisin can be calculated b y the formula ( 2) . […]

The next assay concerns S. aureus. The experiment in a line: Agar well diffusion assay. The class given is cell-based, Staphylococcus aureus. To be noted: 20 °C; estimated from halo diameter by nisin standard curve, relative to wt. The method, then:
as §1
(§3) For the agar well diffusion assay, the same cultures as in the MIC value test were used and diluted 200 times with solid media. Identical sizes of wells (7.5 mm diameter) were made and 2 μg of hinge region analogs dissolved in 20 μl 0.05% acetic acid were added. The plates were incubated at different temperatures for at least 1 day until apparent halos appeared. For activity test at low temperature, the indicators were diluted in the same way but poured into smaller plates (52 mm diameter). The plates were incubated at 4°C overnight before the peptides were added. B. sporothermodurans IC4 and B. cereus 4153 were first incubated with the peptides at 4°C for 2 weeks then moved to 30°C and incubated overnight. The diameters of the halos were measured.
(§4) The antimicrobial activity of the hinge region analogs in solid media were tested by an agar well diffusion assay. The diameters of the halos were measured and the residual activity of the analogs were estimated according to the formula of the relationship between the concentration of nisin and the sizes of halos. We made use of the fact that the size of the halo is directly related to the log of nisin concentration. Of course this is an estimate of activity of the variants because any changes in diffusion of the variant bacteriocin or growth rates of indicator bacteria during the assay could also affect the size of the halo. (Table 5 and Supplementary Figure 1). The plates were shown in supplementary data (Supplementary Figures 2–8). […] And against L. lactis at 20°C, the inhibition zone was larger than nisin. […] The M. luteus grows quite fast at room temperature and only the +2 variant retained 55% of the activity of nisin. […]
as §2
(§5) the concentration of nisin is in liner relationship with diameter of the halos ( Supplementary Fi g u re 1C). According to the formula (1) , the relative activity of the peptides compared to nisin can be calculated b y the formula ( 2) .
(§6) Supplementary Figure 1. Relationship between concentration of nisin and diameter of the halos. (A) Agar well diffusion assay. Gradient concentration of nisin were made and dissolved in 30µl 0.05% acetic acid. Lactococcus lactis ( with two plasmids) was cultured overnight and diluted 250 times with GM17 agar before added to the plate. The final concentration of the cells was about 2×10^6 cells/milliliter. The plate was incubated for 1 da y. Concentrations of nisin were labeled. (B) log10 of the concentrati ons and diameters of the halo. (C) A linear curve w as made betw een t he diameters of the halo and log10s of the concentration of nisin. […]

Another assay concerns L. lactis MG1363. The experiment in a line: Agar well diffusion assay. The class given is cell-based, Lactococcus lactis. The note with it: relative to wt. The method, then: as §1, §3, §4, §2, §5
(§7) Supplementary Figure 1. Relationship between concentration of nisin and diameter of the halos. (A) Agar well diffusion assay. Gradient concentration of nisin were made and dissolved in 30µl 0.05% acetic acid. Lactococcus lactis ( with two plasmids) was cultured overnight and diluted 250 times with GM17 agar before added to the plate. The final concentration of the cells was about 2×10^6 cells/milliliter. The plate was incubated for 1 da y. Concentrations of nisin were labeled. (B) log10 of the concentrati ons and diameters of the halo. (C) A linear curve w as made betw een t he diameters of the halo and log10s of the concentration of nisin.
(§8) (1 picture or pasted object on this page, not shown here)
(§9) Last Name a uthor 1 et al. Running Title
(§10) C = concentration of nisin d° = diameter of the halo of wild t ype […]
(In general: A growth-free zone around the sample is the usual read-out of agar diffusion tests.)

Another assay concerns M. luteus. The experiment in a line: Agar well diffusion assay. The class given is cell-based, Micrococcus luteus. The note with it: 20 °C; estimated from halo diameter by nisin standard curve, relative to wt. The method, then:
as §1, §3, §4, §2, §5, §6

The subject of assay [1] is Bacillus cereus (L′29) 16. The experiment in a line: MIC in liquid culture. The class given is cell-based. The note with it: MIC value of nisin divided by that of the analog. The method, then: as §1
(§11) The indicator strains were cultured until OD (600 nm) reached 0.5. Before MIC value test, the culture was diluted 1000 times to make the concentration of cells around 5 × 10^5 per milliliter. The test was performed using a temperature controlled plate reader [Tecan200 (Tecan Group AG)] and 96 well plate (Greiner Bio-one). 180 μl indicator strain culture mixed with 20 μl hinge region analogs with final concentration from 0.031 μg/ml–32 μg/ml was incubated at 30°C or 37°C for 18 h. OD (600 nm) was checked every 30 min. For aerobic strains, 2 min of shaking was performed before every check. The concentration of peptide without observed growth of indicator strains was considered as the MIC value.

Assay [2] concerns Lactococcus lactis MG1363. In words: MIC in liquid culture. The class given is cell-based. To be noted: MIC value of nisin divided by that of the analog. The method, then: as §1, §11
Assay [3] has as its system Bacillus sporothermodurans IC4. In words: MIC in liquid culture. The note with it: MIC value of nisin divided by that of the analog. The class given is cell-based. The method, then:
as §1, §11

Assay [4] deals with Enterococcus faecalis VE14089. In words: MIC in liquid culture. The format is cell-based. To be noted: MIC value of nisin divided by that of the analog. The method, then: as §1, §11
A further assay has as its system Listeria monocytogenes. In words: MIC in liquid culture. The format is cell-based. The note with it: MIC value of nisin divided by that of the analog. The method, then: as §1, §11
Another assay deals with Micrococcus luteus. The experiment in a line: MIC in liquid culture. The note with it: MIC value of nisin divided by that of the analog. The format is cell-based. The method, then:
as §1, §11

In a further assay the test system is Staphylococcus aureus. In words: MIC in liquid culture. The format is cell-based. The note with it: MIC value of nisin divided by that of the analog. The method, then: as §1, §11
For another assay, the system named is Bacillus cereus 4147. In words: MIC in liquid culture. The class given is cell-based. To be noted: MIC value of nisin divided by that of the analog. The method, then: as §1, §11
The test system of assay [5] is Streptococcus pneumoniae R6. The experiment in a line: MIC in liquid culture. The format is cell-based. The note with it: MIC value of nisin divided by that of the analog. The method, then:
as §1, §11

The next assay deals with Bacillus cereus 4153. In words: MIC in liquid culture. The class given is cell-based. To be noted: MIC value of nisin divided by that of the analog. The method, then:
as §1, §11

For the next assay, the system named is L. monocytogenes. In words: Agar well diffusion assay. The format is cell-based, Listeria monocytogenes. The note with it: estimated from halo diameter by nisin standard curve, relative to wt. The method, then: as §1, §3, §4, §2, §5, §7, §8, §9, §10
The test system of another assay is E. faecalis VE14089. In words: Agar well diffusion assay. The format is cell-based, Enterococcus faecalis. The note with it: estimated from halo diameter by nisin standard curve, relative to wt. The method, then:
as §1, §3, §4, §2, §5, §7, §8, §9, §10

The mark [6] stands for this setting: 20 °C, estimated from halo diameter by nisin standard curve (halo diameter vs log of nisin concentration).
Where [7] appears, read: 30 °C, estimated from halo diameter by nisin standard curve.

As for `C=C(NC(=O)[C@@H](NC(=O)[C@H](Cc1c[nH]cn1)NC(=O)[C@@H](NC(=O)[C@H](CO)NC(=O)[C@@H]1CS[C@@H](C)[C@H]2NC(=O)[C@H](C)NC(=O)[C@H](NC(=O)[C@H](CCCCN)NC(=O)[C@H](CCSC)NC(=O)[C@H](CC(C)C)NC(=O)[C@@H](NC(=O)[C@@H](NC(=O)[C@H](CC(N)=O)NC(=O)[C@@H]3CS[C@@H](C)[C@@H](NC(=O)[C@H](CCCCN)NC(=O)[C@@H]4CS[C@@H](C)[C@@H](NC(=O)[C@@H]5CSC[C@@H](NC(=O)/C(=C/C)NC(=O)[C@@H](N)[C@@H](C)CC)C(=O)N[C@@H]([C@@H](C)CC)C(=O)NC(=C)C(=O)N[C@@H](CC(C)C)C(=O)N5)C(=O)N5CCC[C@H]5C(=O)NCC(=O)N4)C(=O)NCC(=O)N[C@@H](C)C(=O)N[C@@H](CC(C)C)C(=O)N[C@@H](CCSC)C(=O)NCC(=O)N3)[C@@H](C)CC)C(C)C)[C@H](C)SC[C@H](NC2=O)C(=O)N[C@@H](Cc2c[nH]cn2)C(=O)N1)[C@@H](C)CC)C(C)C)C(=O)N[C@@H](CCCCN)C(=O)O` [+3], the Residual activity is on record as 10% in the assay on B. sporothermodurans IC4; 0% in the assay with S. aureus; 5% in the assay on L. lactis MG1363 (setting [6]); 3% in the assay with L. lactis MG1363 (setting [7]); 7% in the assay on M. luteus; 3% with L. monocytogenes (20 °C). Also, the Residual activity in the assay on L. monocytogenes (30 °C) was 3%; with E. faecalis VE14089 (20 °C), 6%; with E. faecalis VE14089 (30 °C), 9%; with E. faecalis VE14089 (37 °C), 14%. Besides, the “Residual activity of variants compared to nisin” value in [1] is on record as 13%; in [2] it was 13%; in [3] it was 17%; in assay [4], below 21%; in the assay with Listeria monocytogenes, below 25%; in the assay on Micrococcus luteus, 25%. Besides, the “Residual activity of variants compared to nisin” value is recorded as below 3% with Staphylococcus aureus, 25% with Bacillus cereus 4147, 13% in assay [5] and 13% in the assay with Bacillus cereus 4153.

As for `C=C(NC(=O)[C@@H](NC(=O)[C@H](Cc1c[nH]cn1)NC(=O)[C@@H](NC(=O)[C@H](CO)NC(=O)[C@@H]1CS[C@@H](C)[C@H]2NC(=O)[C@H](C)NC(=O)[C@H](NC(=O)[C@H](CCCCN)NC(=O)[C@H](CC(N)=O)NC(=O)[C@@H]3CS[C@@H](C)[C@@H](NC(=O)[C@H](CCCCN)NC(=O)[C@@H]4CS[C@@H](C)[C@@H](NC(=O)[C@@H]5CSC[C@@H](NC(=O)/C(=C/C)NC(=O)[C@@H](N)[C@@H](C)CC)C(=O)N[C@@H]([C@@H](C)CC)C(=O)NC(=C)C(=O)N[C@@H](CC(C)C)C(=O)N5)C(=O)N5CCC[C@H]5C(=O)NCC(=O)N4)C(=O)NCC(=O)N[C@@H](C)C(=O)N[C@@H](CC(C)C)C(=O)N[C@@H](CCSC)C(=O)NCC(=O)N3)[C@H](C)SC[C@H](NC2=O)C(=O)N[C@@H](Cc2c[nH]cn2)C(=O)N1)[C@@H](C)CC)C(C)C)C(=O)N[C@@H](CCCCN)C(=O)O` [−1], the Residual activity is recorded as 522% in the assay with B. sporothermodurans IC4; 16% in the assay with S. aureus; 33% in the assay with L. lactis MG1363 (setting [6]); 17% in the assay on L. lactis MG1363 (setting [7]); 0% with M. luteus; 19% with L. monocytogenes (20 °C). In addition, the Residual activity is 29% in the assay with L. monocytogenes (30 °C), 21% in the assay with E. faecalis VE14089 (20 °C), 72% in the assay on E. faecalis VE14089 (30 °C) and 140% with E. faecalis VE14089 (37 °C). The “Residual activity of variants compared to nisin” value in assay [1] is below 13%; in assay [2] it was 3%; in [3], 50%; in assay [4] it was below 6%; in the assay with Listeria monocytogenes, below 25%; in the assay with Micrococcus luteus, below 25%. Besides, the “Residual activity of variants compared to nisin” value in the assay with Staphylococcus aureus is 3%; in the assay on Bacillus cereus 4147, below 13%; in assay [5], 25%; in the assay with Bacillus cereus 4153, below 13%.
